Legend:
[1] = qIT (quantitative irreversible tethering) thiol consumption assay with glutathione; conditions: compound 0.5 mM, glutathione 5 μM, TCEP-agarose 2 % w/v
Experimental: To measure the kinetics of electrophile‐thiol conjugation we developed quantitative irreversible tethering (qIT), a technique which employs fluorogenic thiol quantification (FTQ) in a high‐throughput thiol consumption assay (Figure 1 a). […] We solved this problem using an immobilized reducing agent (TCEP‐agarose, 2 % w/v), allowing facile separation by centrifugation before conducting the FTQ step (Figure 1 b).
The target thiol (5 μM) is reacted with electrophilic fragments (0.5 mM) under pseudo‐first‐order conditions in the presence of TCEP‐agarose (2 % w/v). Reaction progress is followed by discrete measurements of residual target thiol concentration using the fluorogenic probe CPM and rate constants are derived from exponential regression analysis. b) TCEP‐agarose prevents aerobic thiol oxidation. Glutathione solutions were stored ±TCEP‐agarose (2 % w/v).
Electrophiles were individually reacted with glutathione under pseudo‐first‐order conditions in the presence of TCEP‐agarose. […] Fluorescence measurements were normalized against a DMSO control and exponential regressions used to determine rate constants.
ReactionBplate" setup:!Each! well! of! a! 96Rwell! PCR! plate! was! charged! with! 60–100! µL! of! target! thiol! (GSH! or! protein,! 10! µM)!
and! 4%! w/v! TCEPRagarose! beads! in! 100! mM! phosphate! buffer! (pH! 7.5! or! 8)! and! cooled! to! 4! ˚C.! Reactions! were! started! by!
addition! of! an! equal! volume! of! preRcooled! electrophile! solution! (1! mM,! 2%! DMSO)! in! 0.1! M! phosphate! buffer! (final! concentraR
tion:! thiol! =! 5! µM,! electrophile! =! 0.5! mM,! 2%! w/v! TCEPRagarose! beads),! with! a! minimum! of! 4! wells! per! plate! used! as!
DMSO/thiol! only! controls.! After! mixing,! TCEPRagarose! was! pelleted! by! centrifugation! (1,300! rpm,! 1! min)! and! the! plate! incuR
bated!at!4!˚C.,CPM"Quench:! At! a! series! of! time! points!

Cdk2(WT) [2] = molecular target: T1, Cdk2(WT) (Homo sapiens, UniProt P24941); assay: In vitro kinase assay (NADH-coupled) of ligand-conjugated pCdk2 with Cyclin A2; type: biochemical; set-up: GST (N, cleaved yes); made in house; host or cells: E. coli Tuner(DE3); conditions: for Kinase activity ± s.e.m relative to Cdk2(WT): n=3
Experimental: Hs!Cyclin!A2!F!5’![…]!
Hs!Cyclin!A2!R!5’![…]!
Sc!CAK1!R!5’!GAATTCttatgggcttttctaattcttgcaag!
(§1) GSTBCdk2" and" GSTBcyclin" A2:! Harvested! cells! were! resuspended! in! 50! mM! HEPES! buffer! (pH7.5)! containing! 150! mM! NaCl,!
(§2) 10!mM!MgCl2,!2!mM!dithiothreitol!(DTT),!0.5!mg!mLR1!lysozyme,!and!0.01%!Triton!XR100!at!4!˚C!and!incubated!for!30!minutes.!
(§3) After! sonication! and! centrifugation! (40! min,! 16000! g),! the! supernatant! was! incubated! for! 1! h! with! glutathioneRSepharose!
(§4) beads,! washed! with! lysis! buffer! and! the! desired! protein! eluted! with! 10! mM! GSH! (100! mM! Tris,! pH! 8).! After! incubation! the! deR
(§5) sired! protein! was! cleaved! from! the! GST! tag! with! PreScission! protease! (100:1)! at! 4 °C! for! 4! hours,! the! cleaved! GST! tag! was!
(§6) removed! with! glutathioneRSepharose! beads.! Cdk2! was! concentrated! and! then! loaded! onto! a! Superdex! 75! (16/60)! column,!
(§7) eluting! with! 100! mM! phosphate! buffer! containing! 50! mM! DTT.! Purified! Cdk2! was! concentrated! to! 10! mg! mLR1!and! stored! at!–
(§8) 80! ˚C.! Cyclin! A2! was! purified! by! glutathioneRSepharose! affinity! as! described! above! with! the! following! amendments:! 100! mM!
(§9) MgCl2!was! added! after! GST! cleavage! to! minimise! protein! aggregation! and! gel! filtration! was! performed! with! 50! mM! HEPES!
buffer! (pH! 7.5)! containing! 150! mM! NaCl,! 100! mM! MgCl2,! 2! mM! DTT.! ! GSTRCAK1! was! also! purified! using! the! glutathioneR
Sepharose!affinity!workflow,!however!no!protease!or!gel!filtration!steps!were!performed!and!the!enzyme!was!used!crude.!
His6BCdk2:! Cell! lysis! was! performed! as! above! with! the! addition! of! 30! mM! imidiazole! to! the! lysis! buffer.! Following! sonication!
the! supernatant! was! incubated! for! 1! hour! with!nickel! sulfate! charged! NTA! agarose! beads,! washed! with! lysis!buffer! suppleR
mented!with!50!mM!imidiazole!and!then!His6RCdk2!eluted!with!lysis!buffer!containing!500!mM!imidiazole.!After!dialysis!against!
100! mM! phosphate! buffer! (pH! 8)! containing! 1! mM! DTT,! His6RCdk2! was! concentrated! and! loaded! onto! a! Superdex! 75! (16/60)!
column,!eluting!with!100!mM!phosphate!buffer!(pH!8)!without!reducing!agent."
I., Acrylamide, labelling, of, Cdk2, for, crystallography, TdCD, kinase, assays, and, intact%
protein,mass,spectrometry,
Cdk2! (10! µM)! was! reacted! with! acrylamide! ligands! at! 500! µM! in! 100! mM! phosphate! buffer! (pH! 8)! containing! 1%! DMSO,! until!
labelling! reached! completion! (as! monitored! by! fluorescence! quench! assay! and/or! intact! protein! mass! spectrometry).! Excess!
ligand! was! subsequently! removed! by! serial! dilution! and! concentration! (×5)! into! the!appropriate! buffer! using! Amicon! UltraR0.5!
centrifugal!filter!devices!(MW!cutRoff!=!10!kDa).!
J.,Intact%protein,mass,spectrometry, […]

Cdk2(WT) [3] = molecular target: T1, Cdk2(WT); assay: TdCD melting temperature of acrylamide-modified Cdk2; type: binding; set-up: made in house; host or cells: E. coli Tuner(DE3); conditions: compound-modified Cdk2(WT), n=3
Experimental: as §1, §2, §3, §4, §5, §6, §7, §8, §9
buffer! (pH! 7.5)! containing! 150! mM! NaCl,! 100! mM! MgCl2,! 2! mM! DTT.! ! […]
labelling! reached! completion! (as! monitored! by! fluorescence! quench! assay! and/or! intact! protein! mass! spectrometry).! […]

[4] = Cdk2(WT) completely modified with compound

Row | SMILES | k GSH (pseudo-first-order rate constant) [1] [h⁻¹] | inhibition of kinase activity (Cdk2(WT) [2]; [4]) | Kinase activity ± s.e.m relative to Cdk2(WT) (Cdk2(WT) [2]; [4]) [%] | Tm ± s.e.m (Cdk2(WT) [3]) | inhibition of kinase activity (in words) (Cdk2(WT) [2]; Cdk2(WT) modified with compound)
1 | C=CC(=O)N1CCN(C(=O)OC(C)(C)C)c2ccccc21 [Acrylamide 1] | 0.041 | about 83% | 16.8±3.1 | 48.95 ± 0.25 ˚C | –
2 | C=CC(=O)N1CCN(C(=O)OC)c2ccccc21 [Acrylamide 2] | 0.089 | – | 96.6±5.6 | 50.56 ± 0.24 ˚C | no significant inhibition
